Measurements: patent US4340606A, “3-(p-Alkylsulfonylphenyl)oxazolidinone derivatives as antibacterial agents” (E. I. Du Pont de Nemours and Company, priority 1980, dated 1982)
In brackets after ≈: the same amount, converted by molar mass. Counter-ions that a name gives are not always drawn.

Key:
Staphylococcus aureus = test: in vivo antibacterial activity, mice infected intraperitoneally, oral dosing; conditions: oral at infection and 4 hours later, Reed-Muench, mortality, read-out: In-Vivo ED50, S. aureus
Experimental: (§1) The in vivo antibacterial activity of the compounds was determined as follows.
(§2) Cultures of Staphylococcus aureus or Escherichia coli were grown from stored frozen stocks in trypticase soy broth (BBL), a standard bacteriological growth medium, with shaking until a turbidity of optical density (650μ) of 0.4-0.5 was attained. These cultures were centrifuged and resuspended in either 50% hog gastric mucin for Staphyloccus aureus or saline for Escherichia coli. These suspensions were injected intraperitoneally at dilutions calculated to cause 90-100% mortality within 7 days of the mice of the control groups.
(§3) The compounds were suspended or dissolved in 0.25% Methocel, 15 CPS, at various concentrations. Mice were dosed orally by intubation at the time of infection and again four hours later. Mortality was recorded daily until test termination. The estimated dose 50 (ED50) was calculated by the Reed-Muench method, as described in Reed, L. J. and Muench, H., American Journal of Hygiene, 27, 493-497 (1938), the disclosure of which is herein incorporated by reference.

Escherichia coli = test: as above; conditions: oral at infection and 4 hours later, Reed-Muench, mortality, read-out: In-Vivo ED50, E. coli
Experimental: as §1, §2, §3

[1] = tested on: Staphylococcus epidermidis; test: 24-hour minimum inhibitory concentration, microdilution method, Mueller-Hinton broth; type: cell-based; conditions: S. epidermidis, read-out: In-Vitro MIC
Experimental: The compounds listed below in Table 1 were tested for in vivo and in vitro antibacterial activity. The twenty-four hour minimum inhibitory in vitro concentrations (MIC) for a test strain of Staphylococcus epidermidis of the compounds were determined using a standard microdilution method with Mueller-Hinton broth. This method is described in Conrath, Theodore B., 1972 Handbook of Microtiter Procedures, Dynatech Corporation, Cambridge, Mass., the disclosure of which is herein incorporated by reference. | ^1 24Hour minimum inhibitory concentration: determined by | microdilution method with S. epidermidis as the test organism.

Hemophilus influenzae = test: in-vitro susceptibility of clinical isolates, agar dilution; type: cell-based; conditions: Haemophilus influenzae, 24-hour, 35° C., 4 isolates
Experimental: (§4) The in-vitro antibacterial activity spectrum of (1)-5-Hydroxymethyl-3-(4-methylsulfonyl)phenyl-2-oxazolidinone, determined by an agar dilution procedure, is shown in table 2. This procedure is known in the art and can be summarized as follows. […] The agar plates were inoculated with a 0.001 ml calibrated loopful of bacterial inoculum diluted to contain 5×10^6 colony forming units (CFU) per ml. […] The test organisms included clinical bacterial isolates representing two gram positive and nine gram negative genera.
(§5) ^1 MIC: Minimum Inhibitory Concentration determined by agar dilution

Klebsiella sp. = test: as above; type: cell-based; conditions: 24-hour, 35° C., 68 isolates
Experimental: as §4, §5

Neisseria sp. = test: as above; type: cell-based; conditions: 24-hour, 35° C., 42 isolates
Experimental: as §4, §5

Staphylococci sp. = test: as above; type: cell-based; conditions: 24-hour, 35° C., 37 isolates
Experimental: as §4, §5

Streptococci sp. = test: as above; type: cell-based; conditions: 24-hour, 35° C., 12 isolates
Experimental: as §4, §5

Pseudomonas sp. = test: as above; type: cell-based; conditions: 24-hour, 35° C., 78 isolates
Experimental: as §4, §5

Salmonella sp. = test: as above; type: cell-based; conditions: 24-hour, 35° C., 6 isolates
Experimental: as §4, §5

E. coli = test: as above; type: cell-based; conditions: Escherichia coli, 24-hour, 35° C., 86 isolates
Experimental: as §4, §5

Enterobacter sp. = test: as above; type: cell-based; conditions: 24-hour, 35° C., 41 isolates
Experimental: as §4, §5

Shigella sp. = test: as above; type: cell-based; conditions: 24-hour, 35° C., 9 isolates
Experimental: as §4, §5

Providencia sp. = test: as above; type: cell-based; conditions: 24-hour, 35° C., 12 isolates
Experimental: as §4, §5

Serratia sp. = test: as above; type: cell-based; conditions: 24-hour, 35° C., 44 isolates
Experimental: as §4, §5

Proteus sp. = test: as above; type: cell-based; conditions: 24-hour, 35° C., 88 isolates
Experimental: as §4, §5

Gram positive cocci = test: in-vitro susceptibility of anaerobic clinical isolates, agar dilution; type: cell-based; conditions: 48-hour, 7 isolates tested for each compound
Experimental: (§6) The inhibitory activity for anaerobic bacteria of 5-chloromethyl-3-(4-difluoromethylsulfonyl)phenyl-2-oxazolidinone and (1)-5-hydroxymethyl-3-(4-methylsulfonyl)phenyl-2-oxazolidinone was determined using the agar dilution method described in Barry, Arthur L., The Antimicrobic Susceptibility Test: Principles and Practices, 1976 Lea & Febiger, Philadelphia.
(§7) ^1 48hour minimum inhibitory concentration determined by agar dilutio

Bacteroides sp. = test: as above; type: cell-based; conditions: 48-hour, 32 isolates (chloromethyl compound), 28 isolates (hydroxymethyl compound)
Experimental: as §6, §7

Fusobacterium sp. = test: as above; type: cell-based; conditions: 48-hour, 4 isolates tested for each compound
Experimental: as §6, §7

Clostridium sp. = test: as above; type: cell-based; conditions: 48-hour, 4 isolates tested for each compound
Experimental: as §6, §7

anaerobic bacteria = test: inhibitory activity for anaerobic bacteria, agar dilution; type: cell-based; conditions: in words, from Table 3
Experimental: as §6

Row | Compound | ED50 (Staphylococcus aureus) [mg/kg] | MIC [1] [µg/mL] | also measured
1 | O=C1OC(CO)CN1c1ccc(S(=O)(=O)C(F)F)cc1 (stereo not drawn) [5-Hydroxymethyl-3-(4-difluoromethylsulfonylphenyl)-2-oxazolidinone] | 23 | 3.1 (≈ 10.1 µM) | ED50 (Escherichia coli): 27 mg/kg
2 | O=C1OC(CCl)CN1c1ccc(S(=O)(=O)C(F)(F)C(F)F)cc1 (stereo not drawn) [5-Chloromethyl-3-[4-(1,1,2,2-tetrafluoroethylsulfonyl)phenyl]-2-oxazolidinone] | 92 | 10 (≈ 26.6 µM) | –
3 | CS(=O)(=O)c1ccc(N2CC(CO)OC2=O)cc1 (racemic) [5-Hydroxymethyl-3-(4-methylsulfonylphenyl)-2-oxazolidinone] | 18 | 12.5 (≈ 46.1 µM) | ED50 (Escherichia coli): 40 mg/kg
4 | CS(=O)(=O)c1ccc(N2CC(COC(=O)CCC(=O)O)OC2=O)cc1 (single isomer, unassigned) [l-3-(4-Methylsulfonylphenyl)-2-oxooxazolidin-5-ylmethyl 1,4-Butanediodic Acid Mono Ester, Mono Sodium Salt] | 20 | – | –
5 | CS(=O)(=O)c1ccc(N2C[C@H](CO)OC2=O)cc1 [R-(-)-3-(4-Methylsulfonylphenyl)-5-hydroxymethyl-2-oxazolidinone] | 9 | 12.5 (≈ 46.1 µM) | MIC (Hemophilus influenzae): 16 µg/mL (≈ 59 µM); MIC (Klebsiella sp.): 37.5 µg/mL (≈ 138 µM); MIC (Neisseria sp.): 10.5 µg/mL (≈ 38.7 µM); MIC (Staphylococci sp.): 3.8 µg/mL (≈ 14 µM); MIC (Streptococci sp.): 3.7 µg/mL (≈ 13.6 µM); MIC (Pseudomonas sp.): ≥ 128 µg/mL; MIC (Salmonella sp.): 16 µg/mL (≈ 59 µM); MIC (E. coli): 21.7 µg/mL (≈ 80 µM); MIC (Enterobacter sp.): 37.9 µg/mL (≈ 140 µM); MIC (Shigella sp.): 11.6 µg/mL (≈ 42.8 µM); MIC (Providencia sp.): 26.7 µg/mL (≈ 98.4 µM); MIC (Serratia sp.): ≥ 108 µg/mL; MIC (Proteus sp.): 21.7 µg/mL (≈ 80 µM); MIC (Gram positive cocci): 1.3 µg/mL (≈ 4.79 µM); MIC (Bacteroides sp.): 3.4 µg/mL (≈ 12.5 µM); MIC (Fusobacterium sp.): 0.3 µg/mL (≈ 1.11 µM); MIC (Clostridium sp.): 7 µg/mL (≈ 25.8 µM); ED50 (Escherichia coli): 25 mg/kg; inhibition of anaerobic bacterial growth (anaerobic bacteria): potent inhibitors of anaerobic bacterial growth
6 | O=C1OC(CCl)CN1c1ccc(S(=O)(=O)C(F)F)cc1 (stereo not drawn) [5-Chloromethyl-3-(4-difluoromethylsulfonylphenyl)-2-oxazolidinone] | 20 | 2.5 (≈ 7.68 µM) | MIC (Gram positive cocci): 0.7 µg/mL (≈ 2.15 µM); MIC (Bacteroides sp.): 1.8 µg/mL (≈ 5.53 µM); MIC (Fusobacterium sp.): 0.06 µg/mL (≈ 0.184 µM); MIC (Clostridium sp.): 1 µg/mL (≈ 3.07 µM); inhibition of anaerobic bacterial growth (anaerobic bacteria): potent inhibitors of anaerobic bacterial growth
7 | CC(=O)OCC1CN(c2ccc(S(C)(=O)=O)cc2)C(=O)O1 (stereo not drawn) [5-Acetoxymethyl-3-(4-methylsulfonyl)phenyl-2-oxazolidinone] | 100 | > 50 | –
8 | CS(=O)(=O)c1ccc(N2CC(CBr)OC2=O)cc1 (stereo not drawn) [5-Bromomethyl-3-(4-methylsulfonyl)phenyl-2-oxazolidinone] | – | 5 (≈ 15 µM) | –
9 | O=C1OC(CO)CN1c1ccc(S(=O)(=O)C(F)(F)C(F)F)cc1 (stereo not drawn) [5-Hydroxymethyl-3-[4-(1,1,2,2-tetrafluoroethylsulfonyl)phenyl]-2-oxazolidinone] | 108 | 12.5 (≈ 35 µM) | –
10 | CCS(=O)(=O)c1ccc(N2CC(CCl)OC2=O)cc1 (stereo not drawn) [5-chloromethyl-3-(4-ethylsulfonyl)phenyl-2-oxazolidinone] | – | 50 (≈ 165 µM) | –
11 | C[C@H](N)C(=O)OCC1CN(c2ccc(S(C)(=O)=O)cc2)C(=O)O1 (stereo partly drawn) [5-(L)-Alanyloxymethyl-(1)-3-(4-methylsulfonyl)phenyl-2-oxazolidinone trifluoroacetic acid salt] | 14 | 25 | –
12 | CS(=O)(=O)c1ccc(N2CC(CF)OC2=O)cc1 (stereo not drawn) [5-Fluoromethyl-3-(4-methylsulfonyl)phenyl-2-oxazolidinone] | 35 | 20 (≈ 73.2 µM) | –
13 | C[S+]([O-])c1ccc(N2CC(CO)OC2=O)cc1 (stereo not drawn) [5-Hydroxymethyl-3-(4-methylsulfinylphenyl)-2-oxazolidinone] | 27 | 50 (≈ 196 µM) | –
14 | O=C1OC(CO)CN1c1ccc(S(=O)(=O)C(F)(F)F)cc1 (stereo not drawn) [5-Hydroxymethyl-3-(4-trifluoromethylsulfonylphenyl)-2-oxazolidinone] | 20 | 12.5 (≈ 38.4 µM) | –
15 | CS(=O)(=O)c1ccc(N2CC(COC(=O)CCC(=O)O)OC2=O)cc1 (racemic) [(dl)-3-(4-Methylsulfonylphenyl)-2-oxooxazolidin-5-ylmethyl 1,4-Butanedioic Acid Mono Ester, Mono Sodium Salt] | 26 | > 50 | ED50 (Escherichia coli): 40 mg/kg
16 | C[S+]([O-])c1ccc(N2CC(CCl)OC2=O)cc1 (stereo not drawn) [5-chloromethyl-3-(4-methylsulfinyl)phenyl-2-oxazolidinone] | – | 25 (≈ 91.3 µM) | –
17 | CS(=O)(=O)c1ccc(N2CC(CCl)OC2=O)cc1 (stereo not drawn) [5-Chloromethyl-3-(4-methylsulfonylphenyl)-2-oxazolidinone] | 29 | 5 (≈ 17.3 µM) | ED50 (Escherichia coli): 63 mg/kg
18 | O=C1OC(CCl)CN1c1ccc(S(=O)(=O)C(F)(F)F)cc1 (stereo not drawn) [5-Chloromethyl-3-(4-trifluoromethylsulfonylphenyl)-2-oxazolidinone] | 105 | 4.7 (≈ 13.7 µM) | –
